Assay [1] deals with T1, h-TGR5 (Homo sapiens, UniProt Q8TDU6).
T1 construct: expressed in transfected cells
T1 sequence (Q8TDU6 1-330): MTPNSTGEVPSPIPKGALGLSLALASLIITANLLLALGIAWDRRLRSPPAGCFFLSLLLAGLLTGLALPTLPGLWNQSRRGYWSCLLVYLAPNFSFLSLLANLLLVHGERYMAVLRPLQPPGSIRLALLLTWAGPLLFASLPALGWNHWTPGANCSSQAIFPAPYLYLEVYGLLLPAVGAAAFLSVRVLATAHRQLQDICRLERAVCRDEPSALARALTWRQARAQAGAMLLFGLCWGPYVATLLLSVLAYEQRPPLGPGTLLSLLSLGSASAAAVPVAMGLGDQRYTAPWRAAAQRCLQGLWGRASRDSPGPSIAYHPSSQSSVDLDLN
Nature of the assay: TGR5 cAMP Assay using Cisbio cAMP Dynamic2 htrf kit (hTGR5CRE-luc HEK 293 cells). Type of assay: cell-based. The note with it: h-TGR5 cAMP EC50, Table 1; read-out: cAMP (EC50). In outline: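 […], 4000 hTGR5CRE-luc HEK 293 cells per well, with 0.5 mM IBMX and d2-cAMP, were incubated 30 min at room temperature with compounds in 8-point half-log series, in quadruplicate.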

The target of assay [2] is T2, human TGR5 (h-TGR5) (Homo sapiens, UniProt Q8TDU6).
T2 construct: expressed in transfected cells
T2 sequence (Q8TDU6 1-330): T1 sequence (Q8TDU6 1-330)
Put plainly: TGR5/CRE-Luciferiase Assay (HEK 293 hTGR5/CRE-Luc cells). The settings on record: h-TGR5 CRE-Luc EC50, Table 1; read-out: CRE-Luc (EC50). Type of assay: cell-based. In outline: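 HEK293 cells stably carrying hTGR5 and a CRE-luciferase reporter were exposed to serially diluted compounds (diluted in DMEM with 5% DMSO) for 6 h. Cells were then lysed in luciferase buffer, luminescence was read, and EC50 values were derived from dose-response curves.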

pEC50: −log10 of the molar value. A value given as a limit tells only on which side of the number the result lay.

Usually pEC50 stands for the negative decadic logarithm of the EC50, by convention in mol/L.

For `CCOC(=O)NS(=O)(=O)c1ccc(CSc2ncc(C(C)(C)c3ccc(Cl)c(OC)c3)n2-c2ccc(F)cc2)c(Cl)c1` [ethyl {[3-chloro-4-({[5-{1-[4-chloro-3-(methyloxy)phenyl]-1-methylethyl}-1-(4-fluorophenyl)-1H-imidazol-2-yl]thio}methyl)phenyl]sulfonyl}carbamate], the pEC50 in assay [1] and in assay [2] was more than 7.00 in each case.

Consider `COc1ccc(C(C)(C)c2cnc(SCc3ccc(F)c(S(N)(=O)=O)c3)n2-c2ccc(F)cc2)cc1OC` [5-({[5-{1-[3,4-bis(methyloxy)phenyl]-1-methylethyl}-1-(4-fluorophenyl)-1H-imidazol-2-yl]thio}methyl)-2-fluorobenzenesulfonamide], for which the negative-log EC50 (pEC50) in assay [1] and in assay [2] was more than 7.00 in each case.

With `CC(C)(c1ccc(S(N)(=O)=O)c(Cl)c1)c1cnc(SCc2c(F)cc(C(=O)O)cc2F)n1-c1ccc(F)cn1` [4-({[5-{1-[4-(aminosulfonyl)-3-chlorophenyl]-1-methylethyl}-1-(5-fluoropyridin-2-yl)-1H-imidazol-2-yl]thio}methyl)-3,5-difluorobenzoic acid], the pEC50 in assay [1] and in assay [2] was 6.00 to 7.00 in each case.

In the case of `COc1ccc(C(C)(C)c2cnc(SCc3cc(F)ccc3Cl)n2-c2ccc(F)cc2)cc1OC` [5-{1-[3,4-bis(methyloxy)phenyl]-1-methylethyl}-2-{[(2-chloro-5-fluorophenyl)methyl]thio}-1-(4-fluorophenyl)-1H-imidazole], the pEC50 in assay [1] and in assay [2] was more than 7.00 throughout.

In the case of `COc1cc(C(C)(C)c2cnc(SCc3c(F)cc(S(=O)(=O)NCCCNC(=N)N)cc3F)n2-c2ccc(F)cc2)ccc1Cl` [N-(3-{[amino(imino)methyl]amino}propyl)-4-({[5-{1-[4-chloro-3-(methyloxy)phenyl]-1-methylethyl}-1-(4-fluorophenyl)-1H-imidazol-2-yl]thio}methyl)-3,5-difluorobenzenesulfonamide], the pEC50 in assay [1] and in assay [2] was more than 7.00 throughout.

For the molecule `CC(C)(c1ccc(Cl)c(Cl)c1)c1cnc(SCc2ccc(-c3nnn[nH]3)cc2F)n1-c1ccc(F)cc1` [5-{4-[({5-[1-(3,4-dichlorophenyl)-1-methylethyl]-1-(4-fluorophenyl)-1H-imidazol-2-yl}thio)methyl]-3-fluorophenyl}-1H-tetrazole], the pEC50 in assay [1] and in assay [2] was 6.00 to 7.00 in each case.

Turning to `CC(C)(c1ccc(S(N)(=O)=O)c(Cl)c1)c1cnc(SCc2ccc(F)cc2Cl)n1-c1ccc(F)cc1` [2-chloro-4-{1-[2-{[(2-chloro-4-fluorophenyl)methyl]thio}-1-(4-fluorophenyl)-1H-imidazol-5-yl]-1-methylethyl}benzenesulfonamide], the pEC50 was 6.00 to 7.00 in assay [1] and more than 7.00 in assay [2].

For the molecule `CC(C)(c1ccc(Cl)c(Cl)c1)c1cnc(SCc2ccc(C(=O)O)c(Cl)c2)n1-c1ccc(F)cc1` [2-chloro-4-[({5-[1-(3,4-dichlorophenyl)-1-methylethyl]-1-(4-fluorophenyl)-1H-imidazol-2-yl}thio)methyl]benzoic acid], the pEC50 in assay [1] and in assay [2] was 6.00 to 7.00 in each case.

In the case of `CC(C)(c1ccc(Cl)c(Cl)c1)c1cnc(SCc2cc(C(=O)O)ccc2Cl)n1-c1ccc(F)cc1` [4-chloro-3-[({5-[1-(3,4-dichlorophenyl)-1-methylethyl]-1-(4-fluorophenyl)-1H-imidazol-2-yl}thio)methyl]benzoic acid], the pEC50 in assay [1] and in assay [2] was 6.00 to 7.00 each time.

With “4-({[5-{1-[4-chloro-3-(methyloxy)phenyl]-1- methylethyl}-1-(4-fIuorophenyl)-1H-imidazol- 2-yl]thio}methyl)-3,5-difluoro-N-[(pyrrolidin- 1-ylamino)carbonyl]benzenesulfonamide”, the pEC50 in assay [1] and in assay [2] was more than 7.00 throughout.

Consider `CC(C)(c1ccc(F)c(F)c1)c1cnc(SCC2CCN(S(C)(=O)=O)CC2)n1-c1ccc(F)cc1` [4-[({5-[1-(3,4-difluorophenyl)-1-methylethyl]-1-(4-fluorophenyl)-1H-imidazol-2-yl}thio)methyl]-1-(methylsulfonyl)piperidine], for which the pEC50 in assay [1] was 6.00 to 7.00; in assay [2], more than 7.00.

`CC(C)(c1ccc(Cl)c(Cl)c1)c1cnc(CCc2c(F)cc(C(=O)N[C@@H](CCCNC(=N)N)C(=O)O)cc2Cl)n1-c1ccc(F)cc1` [N-2-{[3-chloro-4-(2-{5-[1-(3,4-dichlorophenyl)-1-methylethyl]-1-(4-fluorophenyl)-1H-imidazol-2-yl}ethyl)-5-fluorophenyl]carbonyl}-L-arginine]: the pEC50 in assay [1] and in assay [2] was 6.00 to 7.00 throughout.

Take `COc1cc(-n2c(C(C)(C)c3ccc(Cl)c(Cl)c3)cnc2SCC2CCN(C(=O)NC(C)C)CC2)ccc1F` [4-[({5-[1-(3,4-dichlorophenyl)-1-methylethyl]-1-[4-fluoro-3-(methyloxy)phenyl]-1H-imidazol-2-yl}thio)methyl]-N-(1-methylethyl)piperidine-1-carboxamide]: the values for the pEC50 in assay [1] and in assay [2] were 6.00 to 7.00 and more than 7.00, respectively.

As to `CC(C)(c1ccc(Cl)c(Cl)c1)c1cnc(SCc2ccc(-c3nnn[nH]3)cc2Cl)n1-c1ccc(F)cc1` [5-{3-chloro-4-[({5-[1-(3,4-dichlorophenyl)-1-methylethyl]-1-(4-fluorophenyl)-1H-imidazol-2-yl}thio)methyl]phenyl}-1H-tetrazole], the pEC50 in assay [1] and in assay [2] was 6.00 to 7.00 each time.

Consider “N-2-({[3-chloro-4-({[5-{1-[4-chloro-3- (methyloxy)phenyl]-1-methylethyl}-1-(4- fluorophenyl)-1H-imidazol-2-yl]thio}methyl)- 5-fluorophenyl]amino}carbonyl)-L-arginine”, for which the pEC50 in assay [1] and in assay [2] was more than 7.00 throughout.

As to `COc1cc(C(C)(C)c2cnc(SCc3ccc(S(=O)(=O)NC(=O)NN4CCCC4)cc3Cl)n2-c2ccc(F)c(CO)c2)ccc1Cl` [3-chloro-4-{[(5-{1-[4-chloro-3-(methyloxy)phenyl]-1-methylethyl}-1-[4-fluoro-3-(hydroxymethyl)phenyl]-1H-imidazol-2-yl)thio]methyl}-N-[(pyrrolidin-1-ylamino)carbonyl]benzenesulfonamide], the pEC50 in assay [1] and in assay [2] was 6.00 to 7.00 throughout.

Take `COc1cc(-n2c(C(C)(C)c3ccc(F)c(C#N)c3)cnc2SCc2ccc(S(=O)(=O)NC(=O)NC(C)C)cc2Cl)ccc1F` [3-chloro-4-[({5-[1-(3-cyano-4-fluorophenyl)-1-methylethyl]-1-[4-fluoro-3-(methyloxy)phenyl]-1H-imidazol-2-yl}thio)methyl]-N-{[(1-methylethyl)amino]carbonyl}benzenesulfonamide]: the pEC50 in assay [1] and in assay [2] was more than 7.00 throughout.

For the molecule `CC(C)(c1ccc(Cl)c(Cl)c1)c1cnc(SCc2c(F)cc(C(=O)NCS(=O)(=O)O)cc2F)n1-c1ccc(F)c(Cl)c1` [[({4-[({1-(3-chloro-4-fluorophenyl)-5-[1-(3,4-dichlorophenyl)-1-methylethyl]-1H-imidazol-2-yl}thio)methyl]-3,5-difluorophenyl}carbonyl)amino]methanesulfonic acid], the pEC50 in assay [1] and in assay [2] was more than 7.00 each time.

For `CC(C)(c1ccc(Cl)c(Cl)c1)c1cnc(SCc2ccc(Cl)c(S(N)(=O)=O)c2)n1-c1ccc(F)cc1` [2-chloro-5-[({5-[1-(3,4-dichlorophenyl)-1-methylethyl]-1-(4-fluorophenyl)-1H-imidazol-2-yl}thio)methyl]benzenesulfonamide], the pEC50 in assay [1] and in assay [2] was more than 7.00 each time.

Take `CC(=O)NS(=O)(=O)c1ccc(CSc2ncc(C(C)(C)c3ccc(Cl)c(Cl)c3)n2-c2ccc(F)cc2)c(Cl)c1` [N-({3-chloro-4-[({5-[1-(3,4-dichlorophenyl)-1-methylethyl]-1-(4-fluorophenyl)-1H-imidazol-2-yl}thio)methyl]phenyl}sulfonyl)acetamide]: the negative logarithm of the EC50 (pEC50) in assay [1] and in assay [2] was 6.00 to 7.00 in each case.

In the case of `COc1cc(C(C)(C)c2cnc(SCc3c(F)cc(C(=O)Nc4nnn[nH]4)cc3Cl)n2-c2ccc(F)cc2)ccc1Cl` [3-chloro-4-({[5-{1-[4-chloro-3-(methyloxy)phenyl]-1-methylethyl}-1-(4-fluorophenyl)-1H-imidazol-2-yl]thio}methyl)-5-fluoro-N-1H-tetrazol-5-ylbenzamide], the pEC50 in assay [1] and in assay [2] was more than 7.00 each time.

As to `CC(C)(c1ccc(Cl)c(Cl)c1)c1cnc(SCC2CCN(c3nnn[nH]3)CC2)n1-c1ccc(F)c(Cl)c1` [4-[({1-(3-chloro-4-fluorophenyl)-5-[1-(3,4-dichlorophenyl)-1-methylethyl]-1H-imidazol-2-yl}thio)methyl]-1-(1H-tetrazol-5-yl)piperidine], the pEC50 was 6.00 to 7.00 in assay [1] and more than 7.00 in assay [2].

In the case of `COc1cc(C(C)(C)c2cnc(SCc3ccc(C(=O)NCS(=O)(=O)O)cc3F)n2-c2ccc(F)cc2)ccc1Cl` [({[4-({[5-{1-[4-chloro-3-(methyloxy)phenyl]-1-methylethyl}-1-(4-fluorophenyl)-1H-imidazol-2-yl]thio}methyl)-3-fluorophenyl]carbonyl}amino)methanesulfonic acid], the pEC50 in assay [1] and in assay [2] was more than 7.00 each time.

Values taken from patent US8785488B2 (Exelixis Patent Company LLC, priority 2009, dated 2014).
